HELM strings list units from the 5' end as sugar, base in round brackets, then linkage (d deoxyribose, r ribose, m 2'-O-methyl, p phosphodiester). Strings are as the collection lists them, not checked against the first reports. ss, as = sense and antisense strand; [lna] = locked nucleic acid (LNA); [s4r] = 4'-thioribose; [fl2r] = 2'-fluoro
Conditions: siRNA
Also: test system not given here.

Substance: RNA1{r(C)p.r(U)p.r(U)p.r(A)p.r(C)p.r(G)p.r(C)p.r(U)p.r(G)p.r(A)p.r(G)p.r(U)p.r(A)p.r(C)p.r(U)p.r(U)p.r(C)p.r(G)p.r(A)p.[lna](T)p.[lna](T)}|RNA2{[lna](T)p.r(C)p.r(G)p.r(A)p.r(A)p.r(G)p.r(U)p.r(A)p.r(C)p.r(U)p.r(C)p.r(A)p.r(G)p.r(C)p.r(G)p.r(U)p.r(A)p.r(A)p.r(G)p.[lna](T)p.[lna](T)}$$$RNA1{StrandType:ss}|RNA2{StrandType:as}$
- target mRNA knockdown: 27%

Substance: RNA1{r(G)p.m(U)p.r(A)p.r(U)p.r(C)p.r(C)p.r(G)p.r(A)p.r(A)p.m(G)p.m(A)p.r(C)p.r(G)p.r(A)p.r(A)p.r(G)p.r(C)p.m(U)p.r(A)p.r(T)p.r(T)}|RNA2{m(U)p.r(A)p.r(G)p.r(C)p.r(U)p.r(U)p.r(C)p.r(G)p.r(U)p.r(C)p.r(U)p.r(U)p.r(C)p.r(G)p.r(G)p.r(A)p.m(U)p.r(A)p.r(C)p.r(T)p.r(T)}$$$RNA1{StrandType:ss}|RNA2{StrandType:as}$
- target mRNA knockdown: 92%

Substance: RNA1{[s4r](C)p.[s4r](G)p.[s4r](U)p.[s4r](A)p.[s4r](C)p.[s4r](G)p.r(C)p.r(G)p.r(G)p.r(A)p.r(A)p.r(U)p.r(A)p.[s4r](C)p.[s4r](U)p.[s4r](U)p.[s4r](C)p.[s4r](G)p.[s4r](A)p.r(T)p.r(T)}|RNA2{[s4r](U)p.[s4r](C)p.[s4r](G)p.[s4r](A)p.[s4r](A)p.[s4r](G)p.r(U)p.r(A)p.r(U)p.r(U)p.r(C)p.r(C)p.r(G)p.[s4r](C)p.[s4r](G)p.[s4r](U)p.[s4r](A)p.[s4r](C)p.[s4r](G)p.r(T)p.r(T)}$$$RNA1{StrandType:ss}|RNA2{StrandType:as}$
- target mRNA knockdown: 0%

Substance: RNA1{r(C)p.r(U)p.r(C)p.r(U)p.r(G)p.r(G)p.r(C)p.r(C)p.r(U)p.r(U)p.r(U)p.r(C)p.r(U)p.r(C)p.r(U)p.r(C)p.m(U)p.r(A)p.r(G)p.r(T)p.r(T)}|RNA2{r(C)p.r(U)p.r(A)p.r(G)p.r(A)p.r(G)p.r(A)p.r(G)p.r(A)p.r(A)p.r(A)p.r(G)p.r(G)p.r(C)p.r(C)p.r(A)p.r(G)p.r(A)p.r(G)p.r(T)p.r(T)}$$$RNA1{StrandType:ss}|RNA2{StrandType:as}$
- target mRNA knockdown: 47%

Substance: RNA1{r(A)p.r(A)p.r(G)p.r(G)p.r(A)p.r(G)p.r(A)p.m(U)p.m(C)p.r(A)p.r(A)p.m(C)p.r(A)p.m(U)p.m(U)p.m(U)p.m(U)p.m(C)p.r(A)p.r(T)p.r(T)}|RNA2{m(U)p.r(G)p.r(A)p.r(A)p.r(A)p.r(A)p.m(U)p.r(G)p.m(U)p.m(U)p.r(G)p.r(A)p.m(U)p.m(C)p.m(U)p.m(C)p.m(C)p.m(U)p.m(U)p.r(T)p.r(T)}$$$RNA1{StrandType:ss}|RNA2{StrandType:as}$
- target mRNA knockdown: 37%

Substance: RNA1{r(C)p.r(U)p.r(U)p.r(C)p.r(U)p.r(U)p.r(C)p.r(G)p.r(U)p.r(C)p.r(G)p.r(A)p.r(G)p.r(A)p.r(C)p.r(C)p.r(A)p.r(U)p.r(G)p.d(T)p.d(T)}|RNA2{r(C)p.r(A)p.r(U)p.r(G)p.r(G)p.r(U)p.r(C)p.r(U)p.r(C)p.r(G)p.r(A)p.r(C)p.r(G)p.r(A)p.r(A)p.r(G)p.r(A)p.r(A)p.r(G)p.d(T)p.d(T)}$$$RNA1{StrandType:ss}|RNA2{StrandType:as}$
- target mRNA knockdown: 45%

Substance: RNA1{[fl2r](G)p.r(C)p.[fl2r](C)p.r(U)p.[fl2r](C)p.r(U)p.[fl2r](C)p.r(U)p.[fl2r](A)p.r(U)p.[fl2r](C)p.r(C)p.[fl2r](U)p.r(U)p.[fl2r](A)p.r(G)p.[fl2r](C)p.r(U)p.r(U)p.r(T)p.r(T)}|RNA2{r(A)p.r(A)p.r(G)p.r(C)p.r(U)p.r(A)p.[fl2r](A)p.r(G)p.r(G)p.r(A)p.r(U)p.[fl2r](A)p.r(G)p.r(A)p.r(G)p.r(A)p.r(G)p.r(G)p.r(C)p.r(T)p.r(T)}$$$RNA1{StrandType:ss}|RNA2{StrandType:as}$
- target mRNA knockdown: 34%

Substance: RNA1{m(G)p.r(G)p.m(U)p.r(A)p.m(G)p.r(A)p.m(A)p.r(U)p.m(A)p.r(G)p.m(G)p.r(U)p.m(U)p.r(U)p.m(U)p.r(C)p.m(C)p.r(C)p.m(C)p.r(T)p.r(T)}|RNA2{r(G)p.r(G)p.r(G)p.r(G)p.r(A)p.r(A)p.r(A)p.r(A)p.r(C)p.r(C)p.r(U)p.r(A)p.r(U)p.r(U)p.r(C)p.r(U)p.r(A)p.r(C)p.r(C)p.r(T)p.r(T)}$$$RNA1{StrandType:ss}|RNA2{StrandType:as}$
- target mRNA knockdown: 11%

Substance: RNA1{m(G)p.r(A)p.m(A)p.r(G)p.m(A)p.r(G)p.m(C)p.r(C)p.m(U)p.r(A)p.m(C)p.r(A)p.m(C)p.r(A)p.m(A)p.r(C)p.m(C)p.r(C)p.m(U)p.r(T)p.r(T)}|RNA2{r(A)p.r(G)p.r(G)p.r(G)p.r(U)p.r(U)p.r(G)p.r(U)p.m(G)p.r(U)p.m(A)p.r(G)p.m(G)p.r(C)p.m(U)p.r(C)p.m(U)p.r(U)p.m(C)p.r(T)p.r(T)}$$$RNA1{StrandType:ss}|RNA2{StrandType:as}$
- target mRNA knockdown: 50%

Substance: RNA1{r(G)p.r(G)p.r(A)p.r(A)p.r(G)p.m(U)p.r(A)p.r(A)p.r(G)p.r(G)p.r(A)p.r(C)p.m(C)p.r(A)p.r(G)p.r(A)p.r(G)p.r(A)p.r(C)p.r(T)p.r(T)}|RNA2{r(G)p.r(U)p.r(C)p.r(U)p.r(C)p.m(U)p.r(G)p.r(G)p.r(U)p.r(C)p.r(C)p.r(U)p.m(U)p.r(A)p.r(C)p.r(U)p.r(U)p.r(C)p.r(C)p.r(T)p.r(T)}$$$RNA1{StrandType:ss}|RNA2{StrandType:as}$
- target mRNA knockdown: 41%

Substance: RNA1{r(C)p.r(G)p.r(G)p.r(A)p.r(U)p.r(C)p.m(U)p.r(A)p.r(C)p.r(A)p.r(C)p.r(C)p.r(U)p.r(U)p.r(C)p.m(A)p.r(A)p.r(G)p.r(A)p.r(T)p.r(T)}|RNA2{r(U)p.r(C)p.r(U)p.m(U)p.r(G)p.r(A)p.r(A)p.r(G)p.r(G)p.m(U)p.r(G)p.m(U)p.r(A)p.r(G)p.r(A)p.r(U)p.r(C)p.r(C)p.r(G)p.r(T)p.r(T)}$$$RNA1{StrandType:ss}|RNA2{StrandType:as}$
- target mRNA knockdown: 42%

Substance: RNA1{[s4r](A)p.[s4r](A)p.r(A)p.r(C)p.r(A)p.r(U)p.r(G)p.r(C)p.r(A)p.r(G)p.r(A)p.r(A)p.r(A)p.r(A)p.r(U)p.r(G)p.r(C)p.r(U)p.r(G)p.r(T)p.r(T)}|RNA2{r(C)p.r(A)p.r(G)p.r(C)p.r(A)p.r(U)p.r(U)p.r(U)p.r(U)p.r(C)p.r(U)p.r(G)p.r(C)p.r(A)p.r(U)p.[s4r](G)p.[s4r](U)p.[s4r](U)p.[s4r](U)p.r(T)p.r(T)}$$$RNA1{StrandType:ss}|RNA2{StrandType:as}$
- target mRNA knockdown: 70.9%

Substance: RNA1{r(A)p.r(A)p.r(C)p.r(U)p.r(C)p.m(U)p.r(A)p.r(C)p.r(U)p.r(G)p.r(U)p.r(G)p.r(G)p.r(A)p.r(G)p.r(U)p.r(C)p.r(G)p.r(G)p.r(T)p.r(T)}|RNA2{r(C)p.r(C)p.r(G)p.r(A)p.r(C)p.r(U)p.r(C)p.r(C)p.r(A)p.r(C)p.r(A)p.r(G)p.m(U)p.r(A)p.r(G)p.r(A)p.r(G)p.r(U)p.r(U)p.r(T)p.r(T)}$$$RNA1{StrandType:ss}|RNA2{StrandType:as}$
- target mRNA knockdown: 69%

Substance: RNA1{m(U)p.r(A)p.r(A)p.r(A)p.r(C)p.r(U)p.r(U)p.r(U)p.r(G)p.r(G)p.r(G)p.r(G)p.r(A)p.r(A)p.r(G)p.r(G)p.r(G)p.r(A)p.r(G)p.r(T)p.r(T)}|RNA2{r(C)p.r(U)p.r(C)p.m(C)p.r(C)p.r(U)p.r(U)p.r(C)p.r(C)p.r(C)p.r(C)p.r(A)p.r(A)p.r(A)p.r(G)p.r(U)p.r(U)p.r(U)p.r(A)p.r(T)p.r(T)}$$$RNA1{StrandType:ss}|RNA2{StrandType:as}$
- target mRNA knockdown: 72%

Substance: RNA1{r(A)p.r(G)p.r(A)p.r(C)p.[fl2r](U)p.r(A)p.r(A)p.r(G)p.r(C)p.r(C)p.r(C)p.r(A)p.r(A)p.r(A)p.r(A)p.r(G)p.r(G)p.r(G)p.r(C)p.r(T)p.r(T)}|RNA2{r(G)p.r(C)p.r(C)p.r(C)p.r(U)p.r(U)p.r(U)p.r(U)p.r(G)p.r(G)p.r(G)p.r(C)p.r(U)p.[fl2r](U)p.r(A)p.r(G)p.r(U)p.r(C)p.r(U)p.r(T)p.r(T)}$$$RNA1{StrandType:ss}|RNA2{StrandType:as}$
- target mRNA knockdown: 47%

Substance: RNA1{m(G)p.r(G)p.m(A)p.r(A)p.m(G)p.r(U)p.m(C)p.r(C)p.m(A)p.r(C)p.m(C)p.r(U)p.m(U)p.r(C)p.m(U)p.r(C)p.m(C)p.r(G)p.m(A)p.r(T)p.r(T)}|RNA2{m(U)p.r(C)p.r(G)p.r(G)p.r(A)p.r(G)p.r(A)p.r(A)p.r(G)p.r(G)p.m(U)p.r(G)p.r(G)p.r(A)p.r(C)p.m(U)p.m(U)p.r(C)p.r(C)p.r(T)p.r(T)}$$$RNA1{StrandType:ss}|RNA2{StrandType:as}$
- target mRNA knockdown: 27%

Substance: RNA1{r(A)p.m(U)p.r(A)p.r(C)p.r(U)p.m(U)p.m(G)p.r(G)p.r(C)p.r(G)p.r(G)p.r(G)p.m(C)p.r(U)p.r(C)p.r(U)p.r(U)p.r(U)p.r(C)p.r(T)p.r(T)}|RNA2{r(G)p.r(A)p.r(A)p.r(A)p.r(G)p.r(A)p.r(G)p.r(C)p.r(C)p.r(C)p.r(G)p.r(C)p.m(C)p.r(A)p.r(A)p.r(G)p.m(U)p.r(A)p.r(U)p.r(T)p.r(T)}$$$RNA1{StrandType:ss}|RNA2{StrandType:as}$
- target mRNA knockdown: 70%

Substance: RNA1{r(U)p.r(U)p.r(U)p.r(C)p.r(A)p.r(C)p.r(U)p.r(A)p.r(C)p.r(U)p.r(C)p.r(C)p.r(U)p.r(A)p.r(C)p.r(G)p.r(A)p.r(G)p.r(C)p.d(T)p.d(T)}|RNA2{r(G)p.r(C)p.r(U)p.r(C)p.r(G)p.r(U)p.r(A)p.r(G)p.r(G)p.r(A)p.r(G)p.r(U)p.r(A)p.r(G)p.r(U)p.r(G)p.r(A)p.r(A)p.r(A)p.d(T)p.d(T)}$$$RNA1{StrandType:ss}|RNA2{StrandType:as}$
- target mRNA knockdown: 0%

Substance: RNA1{r(G)p.r(A)p.r(G)p.r(G)p.r(A)p.r(A)p.r(G)p.r(A)p.m(U)p.r(G)p.r(A)p.r(G)p.r(U)p.r(U)p.r(G)p.r(U)p.r(A)p.r(C)p.r(C)p.r(T)p.r(T)}|RNA2{r(G)p.r(G)p.r(U)p.r(A)p.m(C)p.r(A)p.r(A)p.r(C)p.r(U)p.m(C)p.r(A)p.r(U)p.r(C)p.r(U)p.r(U)p.r(C)p.r(C)p.r(U)p.r(C)p.r(T)p.r(T)}$$$RNA1{StrandType:ss}|RNA2{StrandType:as}$
- target mRNA knockdown: 77%

Substance: RNA1{m(C)p.r(U)p.m(C)p.r(C)p.m(G)p.r(A)p.m(C)p.r(A)p.m(G)p.r(A)p.m(U)p.r(G)p.m(A)p.r(A)p.m(G)p.r(G)p.m(A)p.r(A)p.m(A)p.r(T)p.r(T)}|RNA2{r(U)p.r(U)p.r(U)p.r(C)p.r(C)p.r(U)p.r(U)p.r(C)p.m(A)p.r(U)p.r(C)p.r(U)p.r(G)p.r(U)p.r(C)p.r(G)p.r(G)p.m(A)p.r(G)p.r(T)p.r(T)}$$$RNA1{StrandType:ss}|RNA2{StrandType:as}$
- target mRNA knockdown: 46%

Source: the OligoGym collection
